Experimental findings from paper PMC8548483, “Bioactive compounds from an endophytic fungi Nigrospora aurantiaca” (Botanical Studies, 2021) are described below.

Common to all, as to type: cell-based, murine
Data set [1] deals with microglial BV-2 cells. The data set can be described thus: Cell viability (MTT test) in BV-2 cells. The settings on record: 10 µM. Here is the method: (§1) The murine BV-2 microglial cell line cultured followed the procedure of our previous reports (Hsiao et al. [2020]). In summary, BV-2 cells were cultured with DMEM containing Fetal Bovine Serum (FBS), streptomycin/penicillin, Lglutamine and HEPES at 37 °C, humidified 5% CO2. Prior to the study, BV-2 cells were cultured in FBS media (5%), pretreated with carrier media or various concentrations of compounds for 15 min, and eventually collected after 24 h of stimulation with LPS (150 ng/mL).
(§2) As in our previous report, cellular viability was assessed using MTT test where BV-2 cells, along with other compounds were treated for 24 h (Hsiao et al. [2020]).

A short description of data set [2]: Cell viability (MTT test) in BV-2 cells. The settings on record: mouse, BV-2 microglial cells, 24 h, MTT, mean ± SD (n = 3), read-out: Cell viabillity (%). The protocol:
as §1, §2

The subject of data set [3] is NO production in LPS-activated microglial BV-2 cells. The data set can be described thus: Inhibition of NO production in LPS-activated microglial BV-2 cells (Griess method). The settings on record: for Inhibitory effect on NO production (in words): LPS-activated BV-2 cells; for IC50: Mus musculus, LPS (150 ng/mL)-stimulated BV-2 cells, 15 min pretreatment, 24 h, mean ± SD (n = 3), read-out: IC50 (inhibitory effect on NO production). Here is the method: as §1
The level of nitric oxide (NO) metabolites from the production of activated BV-2 cells was measured with reference to the Griess method (Wang et al. [2018]).
Background: Nitrite, measured by Griess reagent, commonly stands in for NO production.

Entries after “also recorded” stand apart in the source; their conditions may differ.

The IC50 is the point on the concentration scale where inhibition reaches its midpoint. `C/C=C/C=C(\CO)C(/C=C/C)CO` (stereo not shown) [Compound 1, nigaurdiol]: the “Cytotoxicity against microglial BV-2 cells (in words)” value (“Cytotoxicity” below) in data set [1] was “no cytotoxic activity”. For the same molecule, the viability at 24 h, 10 µM in data set [2] was found to be 103 ± 8.8%. Also, in data set [3], the “Inhibitory effect on NO production (in words)” value is reported as “weak inhibitory effects; also recorded: weak inhibitory activities” and the IC50 was determined as 32.2 ± 3.3 µM.

As to `Cc1cc(O)c2c(c1)O[C@@]1(C)OC[C@H](C)C1C2` (stereo partly shown) [Compound 2, xyloketal K], the “Cytotoxicity” value in data set [1] is “no cytotoxic activity”. Moreover, in data set [2], the viability at 24 h, 10 µM worked out at 98.3 ± 7.6%. In data set [3], the “Inhibitory effect on NO production (in words)” value is listed as “weak inhibitory effects; also recorded: weak inhibitory activities” and the IC50 worked out at 30.1 ± 3 µM.

Consider `COC1=CC(=O)c2c(O)c3c(c(O)c2C1=O)C[C@](C)(O)[C@H](O)[C@H]3O` [Compound 3, bostrycin], for which the “Cytotoxicity” value in data set [1] was “significant cytotoxicity”. Further, the viability at 24 h, 10 µM in data set [2] was 10.7 ± 0.8%. Moreover, in data set [3], the “Inhibitory effect on NO production (in words)” value is “potently inhibitory effects; also recorded: potential inhibitory activities” and the IC50 came to 2.3 ± 0.3 µM.

As for `COC1=CC(=O)c2c(O)c3c(c(O)c2C1=O)C[C@](C)(O)[C@H](O)C3` [Compound 4, deoxybostrycin], in data set [1], the “Cytotoxicity” value was “significant cytotoxicity”. In addition, the viability at 24 h, 10 µM in data set [2] was found to be 11.3 ± 1.3%. For the same molecule, in data set [3], the “Inhibitory effect on NO production (in words)” value is listed as “potently inhibitory effects; also recorded: potential inhibitory activities” and the half-maximal inhibitory concentration (IC50) is 2.5 ± 0.5 µM.

`COc1cc(O)c2c(c1O)[C@@H](O)[C@@H]1C[C@](C)(O)[C@H](O)C[C@@H]1C2=O` [Compound 5, xylanthraquinone]: the “Cytotoxicity” value in data set [1] is given as “no cytotoxic activity”. The viability at 24 h, 10 µM in data set [2] was 103 ± 6.9%. In data set [3], the “Inhibitory effect on NO production (in words)” value was “weak inhibitory effects; also recorded: weak inhibitory activities” and the IC50 amounted to 32.1 ± 6.7 µM.

Take `CC(C)[C@@H](C)/C=C/[C@@H](C)[C@H]1CC[C@H]2C3=CC=C4C[C@@H](O)CC[C@]4(C)[C@H]3CC[C@]12C` [Compound 6, ergosterol]: in data set [1], the “Cytotoxicity” value is recorded as “no significant cytotoxic effect”. Besides, the viability at 24 h, 10 µM in data set [2] stood at 90.8 ± 6.7%. In data set [3], the “Inhibitory effect on NO production (in words)” value is listed as “potently inhibitory effects; also recorded: potential inhibitory activities; also recorded: considerable inhibitory effect” and the IC50 was determined as 7.2 ± 1.4 µM.

As to `COc1cc(/C=C/C(=O)CC(=O)/C=C/c2ccc(O)c(OC)c2)ccc1O` [Curcumin, curcumin, reference compound], in data set [3], the IC50 was determined as 6 ± 0.3 µM.
